Drawing on patent US7728025B2, “2-heteroaryl-substituted benzimidazole derivative” (Banyu Pharmaceutical Co., Ltd., priority 2003, dated 2010), this text covers Emax and EC50 for two molecules.

The term Emax denotes the greatest response seen or fitted, relative to the assay's reference. The term EC50 denotes the concentration giving half of the maximal effect.

SMILES strings stand for the structures.

This test addresses T1, recombinant human liver GK (Homo sapiens, UniProt P35557).
T1 construct: made in house; host or cells: E. coli
T1 sequence (P35557 1-466 isoform P35557-2): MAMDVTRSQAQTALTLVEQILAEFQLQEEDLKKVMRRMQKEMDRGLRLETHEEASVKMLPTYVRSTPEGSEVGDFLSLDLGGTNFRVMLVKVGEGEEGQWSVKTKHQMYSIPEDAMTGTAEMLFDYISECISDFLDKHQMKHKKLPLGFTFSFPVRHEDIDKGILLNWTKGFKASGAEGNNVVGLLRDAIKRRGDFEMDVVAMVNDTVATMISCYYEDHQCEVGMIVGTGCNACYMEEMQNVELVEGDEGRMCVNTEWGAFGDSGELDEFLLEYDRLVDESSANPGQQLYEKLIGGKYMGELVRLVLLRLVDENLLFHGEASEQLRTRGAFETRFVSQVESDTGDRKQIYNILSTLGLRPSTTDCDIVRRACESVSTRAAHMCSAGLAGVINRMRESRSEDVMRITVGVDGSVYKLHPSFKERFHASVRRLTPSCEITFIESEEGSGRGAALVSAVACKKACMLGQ
Put plainly: Glucokinase (GK) activation assay: Thio-NADH formation coupled with G6PDH, absorbance at 405 nm. It is filed as biochemical. The conditions noted are these: final glucose concentration 2.5 mM, 30° C.; for Emax: OD level of DMSO control set as 100%. The source says:
The glucokinase activity may be determined not by directly measuring glucose-6-phosphate but by measuring the level of Thio-NADH, which is produced when a reporter enzyme, glucose-6-phosphate dehydrogenase produces phosphogluconolactone from glucose-6-phosphate, and based on the level, the degree of glucokinase activity of the compound tested may be determined.
In this assay, used was a recombinant human liver GK, which was expressed by E. coli as a FLAG fusion protein therein and was purified by […] M2 AFFINITY GEL (Sigma).
Using a 96-well plate, the assay was carried out at 30° C. 69 μl of an assay buffer (25 mM Hepes Buffer/pH=7.2, 2 mM MgCl2, 1 mM ATP, 0.5 mM TNAD, 1 mM dithiothreitol) was put into the plate, and 1 μl of a DMSO solution of the compound or DMSO alone as a control was added thereto. Next, 20 μl of an enzyme mixture (FLAG-GK, 20 U/ml G6PDH) cooled in ice was added to it, and 10 μl of a substrate, 25 mM glucose was added to it, and the reaction was initiated (final glucose concentration=2.5 mM).
After the start of the reaction, the increase in the absorbance at 405 nm was measured for 10 minutes at intervals of 30 seconds, and the increase for the first 5 minutes was used for evaluating the compound tested. FLAG-GK was added so that the absorbance increase after 5 minutes in the presence of 1% DMSO could be from 0.05 to 1.0.
The OD level of the DMSO control was set as 100%; and the OD level of the test compound at different concentrations was determined. From the OD level at each concentration, Emax (%) and EC50 (μM) were computed and used as the index of the GK-activating potency of the compound.

For `CC(=O)c1ccccc1Oc1cc2nc(-c3ccccn3)[nH]c2cc1Oc1ccc(C(=O)N(C)C)cc1` [Example 26, 5-(2-Acetyl-phenoxy)-6-(4-dimethylcarbamoyl-phenoxy)-2-pyridin-2-yl-1H-benzimidazole], the Emax was 768% and the EC50 is 2300 nM.

`COc1ccccc1Oc1cc(Oc2cccnc2)cc2[nH]c(-c3ccccn3)nc12` [Example 67, 4-(2-Methoxy-phenoxy)-2-pyridin-2-yl-6-(pyridin-3-yloxy)-1H-benzimidazole]: the maximal effect (Emax) stood at 832% and the concentration giving a half-maximal response (EC50) was 1400 nM.
